Experimental data as given in patent publication US20160361365A1, “TREATMENT OF CNS DISEASE WITH ENCAPSULATED INDUCIBLE CHOROID PLEXUS CELLS” (Living Cell Technologies New Zealand Limited, priority 2015, published 2016).
Counter-ions that a name gives are not always drawn.

Assays:
Assay type in all cases: cell-based, porcine
encapsulated CP = assay: VEGF secretion by encapsulated CP cultured with or without inducers; conditions: 1000 CP-containing capsules, 24 hours at 37° C.; FIG. 3B
Description: To determine that certain inducers can increase the secretion of CSF components by CPs that have been encapsulated, 1000 CP-containing capsules were cultured in 24-well multi-well plate with or without various inducers including LiCl at 37° C. for 24 hours. Aliquots of supernatant fluids were collected and assayed for VEGF as described in EXAMPLE 1. Aliquots of the cell cultures were also collected for DNA quantification to determine the relative number of cells in each well as described in EXAMPLE 1.

[1] = tested on: Choroid plexus (CP) cell clusters; assay: Total antioxidant capacity (TAC) of culture supernatants of CP cell clusters exposed to candidate CP inducing agents (OxiSelect TAC assay); conditions: non-encapsulated CP clusters, 72 hours; FIG. 2
Description: Choroid plexus (CP) cell clusters comprising CP cells (5×10^3 clusters/mL) were prepared as described above in Example 1 but without encapsulation and cultured at 37° C. in a 5% CO2 incubator for 24 or 72 hours in vitro in 24-well ultra-low (cell) attachment plates, and culture supernatants were tested for total antioxidant capacity (TAC) using the OxiSelect™ TAC assay (Cat. No. STA-360, Cell Biolabs, Inc., San Diego, Calif.) according to the manufacturer's instructions. To avoid interference in the TAC assay from medium components, cultures were incubated in serum-free, phenol-free RPMI media supplemented with 10 mM nicotinamide. A panel of candidate CP inducing agents was also tested for effects on TAC elaboration by CP cells. Control wells that received the culture medium alone or with each candidate CP inducing agent, but no CP cell clusters, were also incubated and tested for TAC.

[2] = tested on: CP clusters containing CP cells; assay: RNA-Seq of CP clusters for genes encoding CSF components after exposure to inducing agent; conditions: 12 mM LiCl, 72 hours, vs controls; FIG. 8
Description: In a further experiment to identify genes for which the expression levels were altered in CP cells following contact with an inducing agent as provided herein, CP clusters (5×10^3 clusters/mL) containing CP cells, obtained from 12-13 day-old piglets and cultured in vitro for 20-22 days, were incubated for 72 hours in serum-free, phenol-free RPMI medium containing 10 mM nicotinamide in the absence (controls) or presence (inducing agent-treated) of 12 mM LiCl. Cell pellets were harvested and 0.25 ml of TRI™ Reagent (Catalog # T9424, Sigma-Aldrich Corporation, St. Louis, Mo.) was added to lyse the cells. The lysate was pipetted up and down approximately 10 times and stored at −80° C. until RNA-Seq analysis. […] Corresponding human genes encoding human CSF components were identified by established orthology analysis (Groenen et al., 2012 Nature 491(7424):393-8).

| SMILES | VEGF secretion by encapsulated CP versus culture without inducers (encapsulated CP) | release of total antioxidant capacity (TAC) by CP cells [1] | expression levels of porcine genes encoding known CSF components [2] |
| --- | --- | --- | --- |
| [Cl-].[Li+] [LiCl, lithium chloride] | induced VEGF secretion by encapsulated CP above the level secreted by encapsulated CPs cultured without inducers | promoted the release by CP cells of elevated TAC levels | expression levels increased (FIG. 8A-E) or decreased (FIG. 8F-K) |
| COC1=C(OC)C(=O)C(CCCCCCCCCC[P+](c2ccccc2)(c2ccccc2)c2ccccc2)=C(C)C1=O [MitoQ, 10-(6′-ubiquinoyl) decyltriphenylphosphonium salt] | induced VEGF secretion by encapsulated CPs |  |  |
| O=C([O-])[O-].[Li+].[Li+] [lithium carbonate] | induced VEGF secretion by encapsulated CP above the level secreted by encapsulated CPs cultured without inducers |  |  |
| NCCS(=O)(=O)O [taurine, 2-aminoethanesulfonic acid] | induced VEGF secretion by encapsulated CPs |  |  |
